Laboratory results from patent publication EP4725946A1, “IRAK4 DEGRADATION AGENT AND USE THEREOF” (Guangzhou Unirise Pharmaceutical Co., Ltd., priority 2023, dated 2024).
Read-outs that look alike come from different tables or passages of the source.

Experiments:
[1] = Pharmacokinetic study in mice; type: in vivo; details: male mice, plasma
Procedure: Six male mice weighing 20-30 g were randomly divided into two groups. One group received an intravenous (IV) administration of the test compound at a dose of 2 mg/kg, while the other group received an oral (gavage) administration at a dose of 10 mg/kg. Blood samples were collected at 0.083, 0.25, 0.5, 1, 2, 4, 6, 8, and 24 hours post-administration. Plasma samples were processed and analyzed using LC/MS/MS in MRM)mode. A validated standard curve was established for the quantitative determination of the target compound in plasma, enabling the generation of plasma drug concentration-time profiles. Pharmacokinetic parameters were calculated using WinNonlin software with a non-compartmental model.

IRAK4 protein = molecular target: T1, IRAK4 protein (Homo sapiens, UniProt Q9NWZ3); test: IRAK4 Degradation Assay in THP-1 Cells (Western Blot); type: cell-based; design: endogenous in cells; host or cells: THP-1 cells; details: 24 hours, 0.0128 to 1000 nM, IRAK4 protein level by Western Blot; for Dmax: read-out: Dmax%; for DC50: read-out: DC50
T1 sequence (Q9NWZ3 1-460): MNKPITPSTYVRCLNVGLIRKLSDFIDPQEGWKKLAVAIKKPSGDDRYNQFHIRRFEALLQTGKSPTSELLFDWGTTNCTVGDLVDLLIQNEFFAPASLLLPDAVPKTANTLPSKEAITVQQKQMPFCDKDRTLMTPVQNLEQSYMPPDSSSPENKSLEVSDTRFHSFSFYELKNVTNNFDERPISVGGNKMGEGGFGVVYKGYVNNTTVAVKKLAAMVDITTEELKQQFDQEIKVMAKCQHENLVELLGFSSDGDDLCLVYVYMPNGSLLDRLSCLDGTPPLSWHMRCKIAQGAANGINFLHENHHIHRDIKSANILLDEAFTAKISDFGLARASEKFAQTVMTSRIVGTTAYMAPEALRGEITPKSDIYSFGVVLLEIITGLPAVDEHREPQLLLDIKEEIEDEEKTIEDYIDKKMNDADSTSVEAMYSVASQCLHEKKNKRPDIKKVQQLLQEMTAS
Procedure: In a 6-well cell culture plate, an appropriate number of THP-1 cells were seeded. The plate was placed in a 5% CO2 incubator at 37°C for overnight culture. Then, the test compound's dimethyl sulfoxide solution was added, with the final concentration ranging from 0.0128 to 1000 nM. After continuous culture for 24 hours, the culture medium was removed, and the cells were collected in a 1.5 mL centrifuge tube. After adding lysis buffer and grinding thoroughly, the mixture was placed on ice for 30 minutes. It was then centrifuged at 15,000 xg and 4°C for 20 minutes. The supernatant was taken, and the level of IRAK4 protein was detected by Western Blot.

[2] = mouse, iv, i.v. (2 mg/kg), read-out: AUC0-t
[3] = mouse, po, p.o. (10 mg/kg), read-out: AUC0-t
[4] = mouse, po, p.o. (10 mg/kg), read-out: Cmax

SMILES	AUC(0-t) ([1]; i.v. (2 mg/kg))	T1/2 ([1]; i.v. (2 mg/kg))	AUC(0-t) ([1]; p.o. (10 mg/kg))	Cmax ([1]; p.o. (10 mg/kg))	T1/2 ([1]; p.o. (10 mg/kg))	Tmax ([1]; mouse, po, p.o. (10 mg/kg))	Dmax (IRAK4 protein; THP-1, THP-1 cells)	DC50 (IRAK4 protein; THP-1 cells)	half-life ([1]; mouse, iv, i.v. (2 mg/kg))	AUC(0-t) [1, 2]	half-life ([1]; mouse, po, p.o. (10 mg/kg))	AUC(0-t) [1, 3]	Cmax [1, 4]	Dmax (IRAK4 protein; THP-1 cells)
Cn1c(=O)n(C2CCC(=O)NC2=O)c2cccc(C#CCO[C@H]3CC[C@H](CN4CCC5(CC4)Cc4cc(NC(=O)c6cnn7cccnc67)c(N6CCC(CO)CC6)cc4O5)CC3)c21 (relative stereo) [Compound 34]	7155 ng·h/mL	2.69 h	14793 ng·h/mL	1540 ng/mL	3.70 h	2 h	90.6%	2.2 nM	–	–	–	–	–	–
Cn1c(=O)n(C2CCC(=O)NC2=O)c2cccc(C#CCO[C@H]3CC[C@@H](CN4CCC5(CC4)Cc4cc(NC(=O)c6cnn7cccnc67)c(N6CCC(CO)CC6)cc4O5)CC3)c21 (relative stereo) [Compound 55]	–	–	–	–	–	1 h	89.3%	3.44 nM	3 h	6190 ng·h/mL	3.36 h	10000 ng·h/mL	1120 ng/mL	–
Cn1c(=O)n(C2CCC(=O)NC2=O)c2cccc(CN3CCC(CCN4CCC5(CC4)Oc4cc(NC(=O)c6cnn7cccnc67)c(N6CCC(CO)CC6)cc4O5)CC3)c21 (centres unmarked) [Compound 15]	–	–	–	–	–	6 h	–	2.22 nM	22.2 h	14400 ng·h/mL	23.6 h	23200 ng·h/mL	1320 ng/mL	86%
Cn1c(=O)n(C2CCC(=O)NC2=O)c2cccc(C#CCO[C@H]3CC[C@H](CN4CCC5(CC4)Cc4cc(NC(=O)c6coc7cccnc67)c(N6CCC(CO)CC6)cc4O5)CC3)c21 (some centres unmarked) [Compound 35]	10556 ng·h/mL	–	23388 ng·h/mL	–	4.34 h	2 h	–	4.69 nM	3.78 h	–	–	–	2070 ng/mL	93.4%
Cc1cnc2c(C(=O)Nc3cc4c(cc3N3CCC(CO)CC3)OC3(CCN(C[C@H]5CC[C@H](OCC#Cc6cccc7c6n(C)c(=O)n7C6CCC(=O)NC6=O)CC5)CC3)C4)cnn2c1 (some centres unmarked) [Compound 36]	–	–	–	–	–	2 h	–	2.27 nM	2.84 h	8730 ng·h/mL	3.22 h	18000 ng·h/mL	1740 ng/mL	86.5%
Cn1c(=O)n(C2CCC(=O)NC2=O)c2cccc(C#CCO[C@H]3CC[C@H](CN4CCC5(CC4)Cc4cc(NC(=O)c6cnn7cc(Cl)cnc67)c(N6CCC(CO)CC6)cc4O5)CC3)c21 (some centres unmarked) [Compound 37]	–	–	–	–	–	4 h	–	3.32 nM	3.36 h	12100 ng·h/mL	3.94 h	29300 ng·h/mL	2150 ng/mL	90.5%
Cn1c(=O)n(C2CCC(=O)NC2=O)c2cccc(C#CCO[C@H]3CC[C@H](CN4CCC5(CC4)Cc4cc(NC(=O)c6cnn7cc(F)cnc67)c(N6CCC(CO)CC6)cc4O5)CC3)c21 (some centres unmarked) [Compound 38]	11671 ng·h/mL	4.07 h	26962 ng·h/mL	2277 ng/mL	4.27 h	4 h	–	2.81 nM	–	–	–	–	–	88.8%
Cn1c(=O)n(C2CCC(=O)NC2=O)c2cccc(C#CCO[C@H]3CC[C@H](CN4CCC5(CC4)Cc4cc(NC(=O)c6cnn7cccnc67)c(N6CCC(C(C)(C)O)CC6)cc4O5)CC3)c21 (some centres unmarked) [Compound 41]	–	–	–	–	–	2 h	–	3.86 nM	2.13 h	5120 ng·h/mL	2.62 h	21200 ng·h/mL	2990 ng/mL	90.5%
Cn1c(=O)n(C2CCC(=O)NC2=O)c2cccc(C#CCO[C@H]3CC[C@H](CN4CCC5(CC4)Cc4cc(NC(=O)c6cnc7cccnn67)c(N6CCC(CO)CC6)cc4O5)CC3)c21 (some centres unmarked) [Compound 45]	3192 ng·h/mL	–	7391 ng·h/mL	1190 ng/mL	4.40 h	2 h	–	1.52 nM	2.02 h	–	–	–	–	87.4%
Cn1c(=O)n(C2CCC(=O)NC2=O)c2cccc(C#CCO[C@H]3CC[C@H](CN4CCC5(CC4)Cc4cc(NC(=O)c6cnn7cccnc67)c(N6CCC(O)CC6)cc4O5)CC3)c21 (some centres unmarked) [Compound 46]	14148 ng·h/mL	2.76 h	42143 ng·h/mL	3493 ng/mL	3.82 h	4 h	–	1.37 nM	–	–	–	–	–	87%
